Structures are written as SMILES.

Usually EC50 stands for the concentration that produces a half-maximal response.

Chain of human LPAR1 (Q92633 whole entry): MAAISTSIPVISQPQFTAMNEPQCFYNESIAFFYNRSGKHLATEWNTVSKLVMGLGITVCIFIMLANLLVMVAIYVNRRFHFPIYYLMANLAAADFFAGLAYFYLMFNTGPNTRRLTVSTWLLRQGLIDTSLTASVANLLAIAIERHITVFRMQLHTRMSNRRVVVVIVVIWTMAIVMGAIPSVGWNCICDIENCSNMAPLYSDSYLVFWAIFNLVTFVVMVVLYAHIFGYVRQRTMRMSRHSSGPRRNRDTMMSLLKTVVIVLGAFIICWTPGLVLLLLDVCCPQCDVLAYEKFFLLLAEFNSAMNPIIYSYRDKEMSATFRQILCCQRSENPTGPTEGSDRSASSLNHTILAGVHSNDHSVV

The assay has as its target human LPAR1 (Homo sapiens (Human), UniProt Q92633). In words: LPAR1 intracellular calcium mobilization assay (antagonist mode, FLIPR). It counts as cell-based. As to conditions: CHO-K1 EDG2 cells expressing human LPAR1, LPA 18:2 at EC80 (100 nM), test compound 0.5 nM to 10 μM. (In general: Calcium flux is commonly read through the fluorescence of an indicator in the cells.)
For `Cc1nc(-c2nnn(C)c2NC(=O)O[C@H](C)c2cc(F)cnc2F)ccc1NC(=O)c1cnc(C(F)(F)F)nc1` [Compound 314, (R)-1-(2,5-difluoropyridin-3-yl)ethyl (1-methyl-4-(6-methyl-5-(2-(trifluoromethyl)pyrimidine-5-carboxamido)pyridin-2-yl)-1H-1,2,3-triazol-5-yl)carbamate], the EC50 was 2.9 nM.
As for `Cc1ncc(C(=O)Nc2ccc(-c3nnn(C)c3NC(=O)O[C@H](C)c3cc(F)cnc3F)nc2)cn1` [Compound 234, (R)-1-(2,5-difluoropyridin-3-yl)ethyl (1-methyl-4-(5-(2-methylpyrimidine-5-carboxamido)pyridin-2-yl)-1H-1,2,3-triazol-5-yl)carbamate], the EC50 turned out to be 136 nM.
As for `C[C@@H](OC(=O)Nc1c(-c2ncc(NC(=O)C34CC(F)(C3)C4)cn2)nnn1C)c1cc(F)cnc1Cl` [Compound 330, (R)-1-(2-chloro-5-fluoropyridin-3-yl)ethyl (4-(5-(3-fluorobicyclo[1.1.1]pentane-1-carboxamido)pyrimidin-2-yl)-1-methyl-1H-1,2,3-triazol-5-yl)carbamate], the figure is 600 nM; as for `C[C@@H](OC(=O)Nc1c(-c2ccc(NC(=O)c3ccnc(C(F)(F)F)c3F)cn2)nnn1C)c1cc(F)cnc1F` [Compound 261, (R)-1-(2,5-difluoropyridin-3-yl)ethyl (4-(5-(3-fluoro-2-(trifluoromethyl)isonicotinamido)pyridin-2-yl)-1-methyl-1H-1,2,3-triazol-5-yl)carbamate], 11.9 nM; as for `C[C@@H](OC(=O)Nc1c(-c2ccc(NC(=O)[C@@H]3CNC(=O)C3)cn2)nnn1C)c1cccnc1Cl` [Compound 150, (R)-1-(2-chloropyridin-3-yl)ethyl (1-methyl-4-(5-((S)-5-oxopyrrolidine-3-carboxamido)pyridin-2-yl)-1H-1,2,3-triazol-5-yl)carbamate], 880 nM.
On to `C[C@@H](OC(=O)Nc1c(-c2ccc(NC(=O)[C@@H]3C[C@H]3C#N)cn2)nnn1C)c1cccnc1Cl` [Compound 51, (R)-1-(2-chloropyridin-3-yl)ethyl (4-(5-((1R,2R)-2-cyanocyclopropane-1-carboxamido)pyridin-2-yl)-1-methyl-1H-1,2,3-triazol-5-yl)carbamate], for which the EC50 stood at 88.7 nM.
The same measure for `C[C@@H](OC(=O)Nc1c(-c2ccc(NC(=O)c3cnc(C(F)(F)F)nc3)c(F)n2)nnn1C)c1cccnc1Cl` [Compound 318, (R)-1-(2-chloropyridin-3-yl)ethyl (4-(6-fluoro-5-(2-(trifluoromethyl)pyrimidine-5-carboxamido)pyridin-2-yl)-1-methyl-1H-1,2,3-triazol-5-yl)carbamate]: 9.5 nM; for `C[C@@H](OC(=O)Nc1c(-c2ccc(NC(=O)c3ccc(F)nc3)cn2)nnn1C)c1cc(F)cnc1F` [Compound 220, (R)-1-(2,5-difluoropyridin-3-yl)ethyl (4-(5-(6-fluoronicotinamido)pyridin-2-yl)-1-methyl-1H-1,2,3-triazol-5-yl)carbamate]: 158 nM; for `C[C@@H](OC(=O)Nc1c(-c2ccc(NC(=O)c3ccnc(C(F)F)c3)cn2)nnn1C)c1cc(F)cnc1F` [Compound 224, (R)-1-(2,5-difluoropyridin-3-yl)ethyl (4-(5-(2-(difluoromethyl)isonicotinamido)pyridin-2-yl)-1-methyl-1H-1,2,3-triazol-5-yl)carbamate]: 40.2 nM.
As for `C[C@@H](OC(=O)Nc1c(-c2ccc(NC(=O)[C@H]3C[C@H](C#N)C3)cn2)nnn1C)c1cccnc1Cl` [Compound 127, (R)-1-(2-chloropyridin-3-yl)ethyl (4-(5-((1r,3R)-3-cyanocyclobutane-1-carboxamido)pyridin-2-yl)-1-methyl-1H-1,2,3-triazol-5-yl)carbamate], the EC50 turned out to be 416 nM.
Consider `C[C@@H](OC(=O)Nc1c(-c2ncc(NC(=O)c3ccc(Cl)nc3)cn2)nnn1C)c1cc(F)cnc1F` [Compound 319, (R)-1-(2,5-difluoropyridin-3-yl)ethyl (4-(5-(6-chloronicotinamido)pyrimidin-2-yl)-1-methyl-1H-1,2,3-triazol-5-yl)carbamate], for which the EC50 was determined as 1500 nM.
Regarding `C[C@@H](OC(=O)Nc1c(-c2ccc(NC(=O)CC#N)cn2)nnn1C)c1cccnc1Cl` [Compound 59, (R)-1-(2-chloropyridin-3-yl)ethyl (4-(5-(2-cyanoacetamido)pyridin-2-yl)-1-methyl-1H-1,2,3-triazol-5-yl)carbamate], the EC50 turned out to be 264 nM.
As for `C[C@@H](OC(=O)Nc1c(-c2ccc(NC(=O)C34CC(Cl)(C3)C4)cn2)nnn1C)c1cccnc1Cl` [Compound 82, (R)-1-(2-chloropyridin-3-yl)ethyl (4-(5-(3-chlorobicyclo[1.1.1]pentane-1-carboxamido)pyridin-2-yl)-1-methyl-1H-1,2,3-triazol-5-yl)carbamate], the EC50 turned out to be 20.4 nM.
In the case of `C[C@@H](OC(=O)Nc1c(-c2ccc(NC(=O)[C@]3(C#N)C[C@H]3C(F)(F)F)cn2)nnn1C)c1cccnc1Cl` [Compound 201, (R)-1-(2-chloropyridin-3-yl)ethyl (4-(5-((1R,2R)-1-cyano-2-(trifluoromethyl)cyclopropane-1-carboxamido)pyridin-2-yl)-1-methyl-1H-1,2,3-triazol-5-yl)carbamate], the EC50 is 146 nM.
On to `C[C@@H](OC(=O)Nc1c(-c2ccc(NC(=O)C3CC(F)(F)C3)cn2)nnn1C)c1cc(F)cnc1F` [Compound 28, (R)-1-(2,5-difluoropyridin-3-yl)ethyl (4-(5-(3,3-difluorocyclobutane-1-carboxamido)pyridin-2-yl)-1-methyl-1H-1,2,3-triazol-5-yl)carbamate], for which the EC50 was found to be 29.1 nM.
As to `Cc1ccc(C(=O)Nc2ccc(-c3nnn(C)c3NC(=O)O[C@H](C)c3cc(F)cnc3F)nc2)cn1` [Compound 221, (R)-1-(2,5-difluoropyridin-3-yl)ethyl (1-methyl-4-(5-(6-methylnicotinamido)pyridin-2-yl)-1H-1,2,3-triazol-5-yl)carbamate], the EC50 stood at 374 nM.
In the case of `C[C@@H](OC(=O)Nc1c(-c2ccc(NC(=O)N3CC(C#N)C3)cn2)nnn1C)c1cccnc1Cl` [Compound 191, (R)-1-(2-chloropyridin-3-yl)ethyl (4-(5-(3-cyanoazetidine-1-carboxamido)pyridin-2-yl)-1-methyl-1H-1,2,3-triazol-5-yl)carbamate], the concentration for a half-maximal effect (EC50) amounted to 620 nM.
Turning to `C[C@@H](OC(=O)Nc1c(-c2cnc(NC(=O)c3cnc(C(F)F)nc3)cn2)nnn1C)c1cccnc1F` [Compound 327, (R)-1-(2-fluoropyridin-3-yl)ethyl (4-(5-(2-(difluoromethyl)pyrimidine-5-carboxamido)pyrazin-2-yl)-1-methyl-1H-1,2,3-triazol-5-yl)carbamate], the EC50 is 255 nM.
In the case of `CC(=O)Nc1ccc(-c2nnn(C)c2NC(=O)O[C@H](C)c2cc(F)cnc2Cl)nc1` [Compound 15, (R)-1-(2-chloro-5-fluoropyridin-3-yl)ethyl (4-(5-acetamidopyridin-2-yl)-1-methyl-1H-1,2,3-triazol-5-yl)carbamate], the EC50 stood at 452 nM.
For `C[C@@H](OC(=O)Nc1c(-c2cnc(NC(=O)c3ccc(C(F)(F)F)nc3)cn2)nnn1C)c1cccnc1F` [Compound 326, (R)-1-(2-fluoropyridin-3-yl)ethyl (1-methyl-4-(5-(6-(trifluoromethyl)nicotinamido)pyrazin-2-yl)-1H-1,2,3-triazol-5-yl)carbamate], the EC50 worked out at 305 nM.
As for `C[C@@H](OC(=O)Nc1c(-c2ccc(NC(=O)C3(C#N)CCOCC3)cn2)nnn1C)c1cccnc1Cl` [Compound 95, (R)-1-(2-chloropyridin-3-yl)ethyl (4-(5-(4-cyanotetrahydro-2H-pyran-4-carboxamido)pyridin-2-yl)-1-methyl-1H-1,2,3-triazol-5-yl)carbamate], the figure is 309 nM; as for `C[C@@H](OC(=O)Nc1c(-c2ccc(NC(=O)c3cc(F)nc(F)c3F)cn2)nnn1C)c1cc(F)cnc1F` [Compound 264, (R)-1-(2,5-difluoropyridin-3-yl)ethyl (1-methyl-4-(5-(2,3,6-trifluoroisonicotinamido)pyridin-2-yl)-1H-1,2,3-triazol-5-yl)carbamate], 203 nM; as for `C[C@@H](OC(=O)Nc1c(-c2ccc(NC(=O)C3C4CCOC43)cn2)nnn1C)c1cccnc1Cl` (stereo partly drawn) [Compound 159, (R)-1-(2-chloropyridin-3-yl)ethyl (4-(5-(2-oxabicyclo[3.1.0]hexane-6-carboxamido)pyridin-2-yl)-1-methyl-1H-1,2,3-triazol-5-yl)carbamate], 394 nM.
As for `C[C@@H](OC(=O)Nc1c(-c2ccc(NC(=O)[C@@H]3C[C@H]3F)cn2)nnn1C)c1cccnc1Cl` [Compound 69, (R)-1-(2-chloropyridin-3-yl)ethyl (4-(5-((1S,2R)-2-fluorocyclopropane-1-carboxamido)pyridin-2-yl)-1-methyl-1H-1,2,3-triazol-5-yl)carbamate], the EC50 was determined as 53 nM.
As for `C[C@@H](OC(=O)Nc1c(-c2ccc(NC(=O)C34CC(CO3)C4)cn2)nnn1C)c1cccnc1Cl` [Compound 105, (R)-1-(2-chloropyridin-3-yl)ethyl (4-(5-(2-oxabicyclo[2.1.1]hexane-1-carboxamido)pyridin-2-yl)-1-methyl-1H-1,2,3-triazol-5-yl)carbamate], the figure is 1580 nM.
For the compound `C[C@@H](OC(=O)Nc1c(-c2ccc(NC(=O)C3(C)CS(=O)(=O)C3)cn2)nnn1C)c1cc(F)cnc1F` [Compound 228, (R)-1-(2,5-difluoropyridin-3-yl)ethyl (1-methyl-4-(5-(3-methyl-1,1-dioxidothietane-3-carboxamido)pyridin-2-yl)-1H-1,2,3-triazol-5-yl)carbamate], the EC50 is 403 nM.
As for `C[C@@H](OC(=O)Nc1c(-c2ccc(NC(=O)C3CCC3)cn2)nnn1C)c1cccnc1Cl` [Compound 35, (R)-1-(2-chloropyridin-3-yl)ethyl (4-(5-(cyclobutanecarboxamido)pyridin-2-yl)-1-methyl-1H-1,2,3-triazol-5-yl)carbamate], the figure is 103 nM.

(Values after patent publication US11912686B2 (Gilead Sciences, Inc., priority 2020, dated 2024).)
